Assay results taken from ChEMBL document CHEMBL4308841, “Synthesis, in vitro antiproliferative activity, and kinase inhibitory effects of pyrazole-containing diarylureas and diarylamides” (Eur J Med Chem, 2018).

Key:
MOLT-4 = experiment: Growth inhibition of human MOLT4 cells assessed as cell growth at 10 uM incubated for 48 hrs by sulforhodamine B assay relative to control; type: functional; settings: MOLT-4, 48 h, read-out: Activity
HCT-15 = experiment: Growth inhibition of human HCT15 cells assessed as cell growth at 10 uM incubated for 48 hrs by sulforhodamine B assay relative to control; type: functional; settings: HCT-15, 48 h, read-out: Activity
NCI-H226 = experiment: Growth inhibition of human NCI-H226 cells assessed as cell growth at 10 uM incubated for 48 hrs by sulforhodamine B assay relative to control; type: functional; settings: NCI-H226, 48 h, read-out: Activity
COLO 205 = experiment: Growth inhibition of human COLO205 cells assessed as cell growth at 10 uM incubated for 48 hrs by sulforhodamine B assay relative to control; type: functional; settings: COLO 205, 48 h, read-out: Activity
MDA-MB-435 = experiment: Growth inhibition of human MDA-MB-435 cells assessed as cell growth at 10 uM incubated for 48 hrs by sulforhodamine B assay relative to control; type: functional; settings: MDA-MB-435, 48 h, read-out: Activity
HCC 2998 = experiment: Growth inhibition of human HCC2998 cells assessed as cell growth at 10 uM incubated for 48 hrs by sulforhodamine B assay relative to control; type: functional; settings: HCC 2998, 48 h, read-out: Activity
T47D = experiment: Growth inhibition of human T47D cells assessed as cell growth at 10 uM incubated for 48 hrs by sulforhodamine B assay relative to control; type: functional; settings: read-out: Activity
OVCAR-5 = experiment: Growth inhibition of human OVCAR5 cells assessed as cell growth at 10 uM incubated for 48 hrs by sulforhodamine B assay relative to control; type: functional; settings: OVCAR-5, 48 h, read-out: Activity
MDA-MB-468 [1] = experiment: Growth inhibition of human MDA-MB-468 cells assessed as cell growth at 10 uM incubated for 48 hrs by sulforhodamine B assay relative to control; type: functional; settings: MDA-MB-468, 48 h, read-out: Activity
Malme-3M = experiment: Growth inhibition of human MALME-3M cells assessed as cell growth at 10 uM incubated for 48 hrs by sulforhodamine B assay relative to control; type: functional; settings: read-out: Activity
CCRF-CEM = experiment: Growth inhibition of human CCRF-CEM cells assessed as cell growth at 10 uM incubated for 48 hrs by sulforhodamine B assay relative to control; type: functional; settings: read-out: Activity
SF-295 = experiment: Growth inhibition of human SF295 cells assessed as cell growth at 10 uM incubated for 48 hrs by sulforhodamine B assay relative to control; type: functional; settings: SF-295, 48 h, read-out: Activity
U-251 = experiment: Growth inhibition of human U251 cells assessed as cell growth at 10 uM incubated for 48 hrs by sulforhodamine B assay relative to control; type: functional; settings: U-251, 48 h, read-out: Activity
UACC-62 = experiment: Growth inhibition of human UACC62 cells assessed as cell growth at 10 uM incubated for 48 hrs by sulforhodamine B assay relative to control; type: functional; settings: UACC-62, 48 h, read-out: Activity
IGROV-1 = experiment: Growth inhibition of human IGROV1 cells assessed as cell growth at 10 uM incubated for 48 hrs by sulforhodamine B assay relative to control; type: functional; settings: IGROV-1, 48 h, read-out: Activity
SK-MEL-5 = experiment: Growth inhibition of human SK-MEL-5 cells assessed as cell growth at 10 uM incubated for 48 hrs by sulforhodamine B assay relative to control; type: functional; settings: SK-MEL-5, 48 h, read-out: Activity
BT-549 = experiment: Growth inhibition of human BT549 cells assessed as cell growth at 10 uM incubated for 48 hrs by sulforhodamine B assay relative to control; type: functional; settings: BT-549, 48 h, read-out: Activity
K562 = experiment: Growth inhibition of human K562 cells assessed as cell growth at 10 uM incubated for 48 hrs by sulforhodamine B assay relative to control; type: functional; settings: K562, 48 h, read-out: Activity
CAKI-1 = experiment: Growth inhibition of human Caki1 cells assessed as cell growth at 10 uM incubated for 48 hrs by sulforhodamine B assay relative to control; type: functional; settings: CAKI-1, 48 h, read-out: Activity
UACC-257 = experiment: Growth inhibition of human UACC257 cells assessed as cell growth at 10 uM incubated for 48 hrs by sulforhodamine B assay relative to control; type: functional; settings: UACC-257, 48 h, read-out: Activity
NCI-H322M = experiment: Growth inhibition of human NCI-H322M cells assessed as cell growth at 10 uM incubated for 48 hrs by sulforhodamine B assay relative to control; type: functional; settings: read-out: Activity
786-0 = experiment: Growth inhibition of human 786-0 cells assessed as cell growth at 1 uM incubated for 48 hrs by sulforhodamine B assay relative to control; type: functional; settings: 786-0, 48 h, read-out: Activity
SW-620 [2] = experiment: Growth inhibition of human SW620 cells assessed as cell growth at 0.01 uM incubated for 48 hrs by sulforhodamine B assay relative to control; type: functional; settings: SW-620, 48 h, read-out: Activity
RPMI-8226 = experiment: Growth inhibition of human RPMI8226 cells assessed as cell growth at 0.1 uM incubated for 48 hrs by sulforhodamine B assay relative to control; type: functional; settings: RPMI-8226, 48 h, read-out: Activity
MDA-MB-468 [3] = experiment: Growth inhibition of human MDA-MB-468 cells assessed as cell growth at 100 uM incubated for 48 hrs by sulforhodamine B assay relative to control; type: functional; settings: MDA-MB-468, 48 h, read-out: Activity
UO-31 = experiment: Growth inhibition of human UO31 cells assessed as cell growth at 100 uM incubated for 48 hrs by sulforhodamine B assay relative to control; type: functional; settings: UO-31, 48 h, read-out: Activity
NCI-H23 = experiment: Growth inhibition of human NCI-H23 cells assessed as cell growth at 0.1 uM incubated for 48 hrs by sulforhodamine B assay relative to control; type: functional; settings: NCI-H23, 48 h, read-out: Activity
DU-145 = experiment: Growth inhibition of human DU145 cells assessed as cell growth at 0.1 uM incubated for 48 hrs by sulforhodamine B assay relative to control; type: functional; settings: DU-145, 48 h, read-out: Activity
HCT-116 = experiment: Growth inhibition of human HCT116 cells assessed as cell growth at 0.01 uM incubated for 48 hrs by sulforhodamine B assay relative to control; type: functional; settings: HCT-116, 48 h, read-out: Activity
SW-620 [4] = experiment: Growth inhibition of human SW620 cells assessed as cell growth at 1 uM incubated for 48 hrs by sulforhodamine B assay relative to control; type: functional; settings: SW-620, 48 h, read-out: Activity
SF-539 = experiment: Growth inhibition of human SF539 cells assessed as cell growth at 100 uM incubated for 48 hrs by sulforhodamine B assay relative to control; type: functional; settings: SF-539, 48 h, read-out: Activity
Hs-578T = experiment: Growth inhibition of human Hs578T cells incubated for 48 hrs by sulforhodamine B assay; type: functional, cell-based

SMILES | growth at 10 µM (MOLT-4) [%] | growth at 10 µM (HCT-15) [%] | growth at 10 µM (NCI-H226) [%] | growth at 10 µM (COLO 205) [%] | growth at 10 µM (MDA-MB-435) [%] | growth at 10 µM (HCC 2998) [%] | growth at 10 µM (T47D) [%] | growth at 10 µM (OVCAR-5) [%] | growth at 10 µM (MDA-MB-468 [1]) [%] | growth at 10 µM (Malme-3M) [%] | growth at 10 µM (CCRF-CEM) [%] | growth at 10 µM (SF-295) [%] | growth at 10 µM (U-251) [%] | growth at 10 µM (UACC-62) [%] | growth at 10 µM (IGROV-1) [%] | growth at 10 µM (SK-MEL-5) [%] | growth at 10 µM (BT-549) [%] | growth at 10 µM (K562) [%] | growth at 10 µM (CAKI-1) [%] | growth at 10 µM (UACC-257) [%] | further results
COc1cc(Cl)cc(-c2nn(-c3cccc(NC(=O)c4cc(C(F)(F)F)cc(C(F)(F)F)c4)c3)cc2-c2ccncc2)c1 | 55.3 | 58.6 | 76 | 88.7 | 80 | 78.3 | 53.4 | 83 | 46.5 | 104 | 57.1 | 42.1 | 60.7 | 81.4 | 100 | 67.3 | 96.8 | 38 | 68.6 | 79.3 | growth at 10 µM (NCI-H322M): 80.3%
O=C(Nc1cccc(-n2cc(-c3ccncc3)c(-c3cc(O)cc(Cl)c3)n2)c1)c1cc(C(F)(F)F)cc(C(F)(F)F)c1 | 19.5 | 30.1 | 96 | 38.7 | 45.6 | 28.9 | 26.3 | 70.7 | 31.2 | 61.8 | 26.9 | 15 | 37.2 | 69.3 | 73 | 64.5 | 73.4 | 20.4 | 58.5 | 71 | growth at 1 µM (786-0): 56%; growth at 0.01 µM (SW-620 [2]): 99%; growth at 0.1 µM (RPMI-8226): 105%; growth at 100 µM (MDA-MB-468 [3]): 2%; growth at 100 µM (UO-31): 13%; growth at 0.1 µM (NCI-H23): 95%; growth at 0.1 µM (DU-145): 99%; growth at 0.01 µM (HCT-116): 102%; growth at 1 µM (SW-620 [4]): 100%; growth at 100 µM (SF-539): -13%; growth at 10 µM (NCI-H322M): 74.1%; GI50 (Hs-578T; read-out: GI50): 6.38 µM; CC50 (Hs-578T; read-out: LC50 (the source's name)): > 100 µM; TGI (Hs-578T; read-out: TGI): > 100 µM; GI50 (Hs-578T; read-out: pGI50 (converted)): 6.31 µM; CC50 (Hs-578T; read-out: pLC50 (the source's name) (converted)): > 100 µM; TGI (Hs-578T; read-out: pTGI (converted)): > 100 µM
COc1cc(Cl)cc(-c2nn(-c3cccc(NC(=O)c4ccc(Cl)c(Cl)c4)c3)cc2-c2ccncc2)c1 | 54.9 | 57.9 | 66.2 | 81.5 | 80.8 | 77.8 | 63.2 | 79.2 | 54.6 | 96.4 | 59.2 | 36.1 | 64.1 | 75.4 | 71.6 | 78.5 | 85.2 | 46.4 | 63.6 | 84.2 | growth at 10 µM (NCI-H322M): 84.5%
